Measurements taken from BigSolDB 2.1.

CC(=O)Oc1ccc(C(c2ccc(OC(C)=O)cc2)c2ccccn2)cc1
solubility (mole fraction)
Conditions | 288.15 K | 293.15 K | 298.15 K | 303.15 K | 308.15 K
in DMAc | 0.0391 | 0.0448 | 0.0512 | 0.0583 | 0.0659
in DMF | 0.0372 | 0.0429 | 0.0492 | 0.0561 | 0.0638
in NMP | 0.0643 | 0.0703 | 0.0768 | 0.0837 | 0.0909
in THF | 0.0192 | 0.0237 | 0.0291 | 0.0355 | 0.0431
in acetone | 0.0124 | 0.0154 | 0.0189 | 0.0231 | 0.0281
in acetonitrile | 0.0112 | 0.0135 | 0.0162 | 0.0193 | 0.0229
in ethanol | 0.000471 | 0.000639 | 0.000852 | 0.00113 | 0.00149
in isopropanol | 0.000238 | 0.000327 | 0.000443 | 0.000599 | 0.000804
in methanol | 0.000961 | 0.00123 | 0.00155 | 0.00196 | 0.00245
in n-butanol | 0.000393 | 0.000537 | 0.000719 | 0.000968 | 0.00128
in n-propanol | 0.000462 | 0.000608 | 0.000788 | 0.00102 | 0.00131
in transcutol | 0.00761 | 0.0092 | 0.011 | 0.0131 | 0.0156
in water | 1.32e-07 | 1.56e-07 | 1.83e-07 | 2.14e-07 | 2.49e-07

Conditions | solubility (mole fraction)
in PEG-400, 288.15 K | 0.0132
in PEG-400, 293.15 K | 0.0154
in PEG-400, 298.15 K | 0.0179
in PEG-400, 303.15 K | 0.0206
in PEG-400, 308.15 K | 0.0237
